According to DBAASP:
Values after ≈ are worked out from the molar mass of the structure shown. Values joined by “and” are separate entries in the source; they are usually repeats but may differ in a detail not shown here. Identical values can stand only once. Blank lines part the entries; values can stand above or below the compound they belong to.

What was measured:
Assay in all cases: ≥ marks a high value that may be exact or a test limit, other limits are often not marked, values filed in µg/mL are converted to µM
Escherichia coli MG1655 = system: Escherichia coli MG1655
Bacillus subtilis 168 HT = system: Bacillus subtilis 168 HT
[1] = system: Staphylococcus aureus RF122
[2] = system: Salmonella enterica subsp. enterica serovar Typhimurium LT2
[3] = system: Staphylococcus aureus SA113
[4] = system: Cronobacter sakazakii ATCC BAA-894
[5] = system: Klebsiella pneumoniae NCIMB 13218
[6] = system: Cronobacter sakazakii DPC 6440
[7] = system: Pseudomonas fluorescens NCIMB 9046
[8] = system: Escherichia coli NCIMB 11843
[9] = system: Staphylococcus aureus Newman
[10] = system: Cronobacter muytjensii ATCC 51329
[11] = system: Staphylococcus aureus RN4220
[12] = system: Cronobacter sakazakii DSM 4485
[13] = system: Staphylococcus aureus NCTC 8325-4
[14] = system: Pseudomonas aeruginosa ATCC 15692
[15] = system: Salmonella typhimurium KCTC 1926
[16] = system: Staphylococcus epidermidis KCTC 1917
[17] = system: Listeria monocytogenes KCTC 19111
[18] = system: Escherichia coli ATCC 25922
[19] = system: Staphylococcus aureus ATCC 25923
[20] = system: Salmonella enterica subsp. enterica serovar Typhimurium ATCC 14028
Bacillus megaterium Bm11 = system: Bacillus megaterium Bm11
Escherichia coli ML-35 = system: Escherichia coli ML-35
[21] = system: Staphylococcus aureus 710A
[22] = system: Pseudomonas aeruginosa ATCC 27853
[23] = system: Pseudomonas aeruginosa Z61
Escherichia coli UB1005 = system: Escherichia coli UB1005
[24] = system: Pseudomonas aeruginosa H374
[25] = system: Pseudomonas aeruginosa H547
[26] = system: Pseudomonas aeruginosa H744
[27] = system: Salmonella enterica subsp. enterica serovar Typhimurium ATCC 14028s
[28] = system: Pseudomonas aeruginosa K799
[29] = system: Staphylococcus epidermidis ATCC 12228
[30] = system: Pseudomonas aeruginosa PAO1
Escherichia coli K88 = system: Escherichia coli K88
Escherichia coli 078 = system: Escherichia coli 078
[31] = system: Lactiplantibacillus plantarum 8014
[32] = system: Lacticaseibacillus rhamnosus 7469
[33] = system: Staphylococcus aureus ATCC 29213
Escherichia coli 987P = system: Escherichia coli 987P
[34] = system: Candida albicans CGMCC 2.2086
[35] = system: Candida parapsilosis CGMCC 2.3989
Escherichia coli K99 = system: Escherichia coli K99
[36] = system: Candida tropicalis CGMCC 2.1975
[37] = system: Salmonella enterica subsp. enterica serovar Typhimurium C77-31

Structure (SMILES): CC[C@H](C)[C@H](N)C(=O)N[C@@H](C)C(=O)N[C@@H](Cc1cnc[nH]1)C(=O)N[C@@H](CCC(N)=O)C(=O)NCC(=O)N[C@@H](CC(C)C)C(=O)N1CCC[C@H]1C(=O)N[C@@H](CCC(N)=O)C(=O)N[C@@H](CCC(=O)O)C(=O)O [IAHQGLPQE]
MIC [1]: ≥ 1250 µM
MIC [2]: ≥ 1250 µM
MIC [3]: ≥ 1250 µM
MIC [4]: ≥ 2500 µM
MIC [5]: ≥ 1250 µM
MIC [6]: ≥ 312 µM
MIC [7]: ≥ 1250 µM
MIC [8]: ≥ 1250 µM
MIC [9]: ≥ 1250 µM
MIC [10]: ≥ 2500 µM
MIC [11]: ≥ 1250 µM
MIC [12]: ≥ 2500 µM
MIC [13]: ≥ 1250 µM

Structure (SMILES): CC[C@H](C)[C@H](NC(=O)[C@H](CCCCN)NC(=O)[C@H](CCCCN)NC(=O)[C@H](CC(C)C)NC(=O)[C@H](CC(C)C)NC(=O)CN)C(=O)NCC(=O)N[C@@H](CCCCN)C(=O)N[C@@H](CCCCN)C(=O)N[C@@H](C)C(=O)N[C@@H](CCCCN)C(=O)N[C@@H](CCCCN)C(=O)N[C@@H](C)C(=O)N[C@@H](CC(C)C)C(=O)N[C@@H](CCCCN)C(=O)N[C@@H](CCCCN)C(=O)N[C@@H](CC(C)C)C(=O)NCC(=O)N[C@@H](Cc1ccc(O)cc1)C(N)=O [GLLKKIGKKAKKALKKLGY]
MIC [20]: 2 µM (≈ 4.17 µg/mL)
MIC (Bacillus megaterium Bm11): 2 µM (≈ 4.17 µg/mL)
MIC (Escherichia coli ML-35): 0.5 µM (≈ 1.04 µg/mL)
MIC [21]: 2 µM (≈ 4.17 µg/mL)
MIC [22]: 0.5 µM (≈ 1.04 µg/mL)

Structure (SMILES): CC(C)[C@H](NC(=O)[C@H](CO)NC(=O)[C@H](CC(N)=O)NC(=O)[C@H](CC(=O)O)NC(=O)[C@H](Cc1ccccc1)NC(=O)[C@H](CO)NC(=O)CNC(=O)[C@@H](NC(=O)[C@H](CCC(N)=O)NC(=O)[C@H](CCCCN)NC(=O)[C@H](Cc1ccccc1)NC(=O)[C@H](Cc1ccccc1)NC(=O)[C@H](CO)NC(=O)[C@H](CCCCN)NC(=O)[C@H](CCCN=C(N)N)NC(=O)[C@H](Cc1c[nH]c2ccccc12)NC(=O)[C@H](CCCCN)NC(=O)[C@@H](N)CCCCN)C(C)C)C(=O)O [KKWRKSFFKQVGSFDNSV]
MIC [23]: 29.2 µM (≈ 64 µg/mL)
MIC (Escherichia coli UB1005): 29.2 µM (≈ 64 µg/mL)
MIC [24]: 29.2 µM (≈ 64 µg/mL)
MIC [25]: 29.2 µM (≈ 64 µg/mL)
MIC [26]: 29.2 µM (≈ 64 µg/mL)
MIC [27]: 29.2 µM (≈ 64 µg/mL)
MIC [28]: 29.2 µM (≈ 64 µg/mL)

Structure (SMILES): CC[C@H](C)[C@H](NC(=O)[C@H](CCCCN)NC(=O)[C@H](CCCCN)NC(=O)[C@H](CC(C)C)NC(=O)[C@H](CC(C)C)NC(=O)CN)C(=O)N[C@@H](C)C(=O)N[C@@H](CCCCN)C(=O)N[C@@H](CCCCN)C(=O)N[C@@H](C)C(=O)N[C@@H](CCCCN)C(=O)N[C@@H](CCCCN)C(=O)N[C@@H](C)C(=O)NCC(=O)N[C@@H](CCCCN)C(=O)N[C@@H](CCCCN)C(=O)N[C@@H](CC(C)C)C(=O)NCC(=O)N[C@@H](Cc1ccc(O)cc1)C(N)=O [GLLKKIAKKAKKAGKKLGY]
MIC [20]: > 32 µM
MIC (Bacillus megaterium Bm11): ≥ 32 µM
MIC (Escherichia coli ML-35): 4 µM (≈ 8.17 µg/mL)
MIC [21]: ≥ 32 µM
MIC [22]: 8 µM (≈ 16.3 µg/mL)

Structure (SMILES): CC[C@H](C)[C@H](N)C(=O)N[C@@H](Cc1cnc[nH]1)C(=O)N[C@@H](Cc1cnc[nH]1)C(=O)N[C@H](C(=O)N[C@@H](Cc1cnc[nH]1)C(=O)N[C@@H](Cc1cnc[nH]1)C(=O)N[C@@H](Cc1cnc[nH]1)C(=O)N[C@H](C(=O)N[C@@H](Cc1cnc[nH]1)C(=O)N[C@@H](Cc1cnc[nH]1)C(=O)N[C@H](C(=O)N[C@@H](Cc1cnc[nH]1)C(=O)N[C@@H](Cc1cnc[nH]1)C(=O)N[C@@H](Cc1cnc[nH]1)C(N)=O)[C@@H](C)CC)[C@@H](C)CC)[C@@H](C)CC [IHHIHHHIHHIHHH]
MIC [29]: > 64 µM
MIC [30]: 64 µM (≈ 118 µg/mL)
MIC (Escherichia coli K88): ≥ 64 µM
MIC (Escherichia coli 078): ≥ 64 µM
MIC [20]: > 64 µM
MIC (Escherichia coli UB1005): ≥ 64 µM
MIC [31]: ≥ 64 µM
MIC [32]: ≥ 64 µM
MIC [33]: > 64 µM
MIC [18]: 64 µM and > 32 µM
MIC [19]: > 64 µM
MIC (Escherichia coli 987P): ≥ 64 µM
MIC [34]: 16 µM (≈ 29.5 µg/mL)
MIC [35]: 2 µM (≈ 3.68 µg/mL)
MIC (Escherichia coli K99): ≥ 64 µM
MIC [36]: 1 µM (≈ 1.84 µg/mL)
MIC [37]: ≥ 64 µM

The next lines start with the values.

MIC (Escherichia coli MG1655): ≥ 82 µM
MIC (Bacillus subtilis 168 HT): ≥ 82 µM
Structure (SMILES): CC[C@H](C)[C@H](NC(=O)CNC(=O)[C@H](C)NC(=O)[C@H](Cc1cnc[nH]1)NC(=O)[C@@H](NC(=O)[C@H](CCCCN)NC(=O)[C@H](Cc1ccc(O)cc1)NC(=O)[C@@H]1CCCN1C(=O)[C@@H](NC(=O)[C@H](CC(C)C)NC(=O)[C@H](CCCCN)NC(=O)[C@H](CCCCN)NC(=O)[C@@H](N)Cc1c[nH]c2ccccc12)C(C)C)[C@@H](C)CC)C(=O)O [WKKLVPYKIHAGI]

MIC [14]: 4 µM (≈ 6.57 µg/mL)
MIC [15]: 2 µM (≈ 3.28 µg/mL)
MIC [16]: 4 µM (≈ 6.57 µg/mL)
MIC [17]: 4 µM (≈ 6.57 µg/mL)
MIC [18]: 1 µM (≈ 1.64 µg/mL)
MIC [19]: 16 µM (≈ 26.3 µg/mL)
Structure (SMILES): CC(C)[C@H](NC(=O)[C@H](Cc1c[nH]c2ccccc12)NC(=O)[C@H](CCCCN)NC(=O)[C@H](CCCCN)NC(=O)[C@@H](NC(=O)[C@H](Cc1c[nH]c2ccccc12)NC(=O)[C@H](CCCCN)NC(=O)[C@H](CCCCN)NC(=O)[C@@H](NC(=O)[C@H](Cc1c[nH]c2ccccc12)NC(=O)[C@@H](N)CCCCN)C(C)C)C(C)C)C(=O)N[C@@H](CCCCN)C(N)=O [KWVKKWVKKWVK]

MIC (Escherichia coli MG1655): ≥ 81 µM
MIC (Bacillus subtilis 168 HT): ≥ 40.7 µM
Structure (SMILES): CC[C@H](C)[C@H](NC(=O)[C@@H](N)CC(C)C)C(=O)N[C@H](C(=O)N[C@@H](CC(C)C)C(=O)N[C@H](C(=O)N[C@@H](CS)C(=O)N[C@@H](CCCN=C(N)N)C(=O)N[C@@H](CCCCN)C(=O)N[C@@H](CCCCN)C(=O)N[C@@H](CCCCN)C(=O)N[C@@H](CCCCN)C(=O)N1CCC[C@H]1C(=O)N[C@@H](Cc1ccccc1)C(=O)O)[C@@H](C)O)C(C)C [LIVLTCRKKKKPF]
